In brackets after ≈: the same amount, converted by molar mass. Like-named read-outs stand apart in the source and are kept apart here. Bounds are passed on as bounds.

Data set [1] in a line: Metabolic Stability assay, rat liver microsomes. Type of data set: in vitro ADME. Here is the method:
Metabolic Stability assay: The metabolic stability was determined by adding compound dissolved in DMSO to human or rat, liver microsomes. Briefly, assays were run with a starting concentration of 1 μM test article. The reaction was started by addition of NADPH regeneration components at 37° C. at which time an aliquot was immediately quenched in ice-cold acetonitrile/MeOH/H2O solution. Reaction mixture was incubated at 37° C. on a shaker, and additional aliquots were taken at 7, 15, 30 and 60 minutes. Following quench and centrifugation, samples were analyzed on HPLC/MS/MS.

The target of a further data set is hTRPV3 (Homo sapiens (Human), UniProt Q8NET8). Kind of data set: Whole-cell patch clamp, hTRPV3 Phase 1 / Phase 2 currents. Type of data set: cell-based. The essentials: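 Whole-cell recordings on induced TRPV3 cells replated on coverslips, held at −40 mV with 400 ms ramps from −120 to +100 mV every 5 s; currents read at −80 and +80 mV. Ringer's external solution; current activated by heating to ≥28 °C or 20 μM 2-APB.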

Data set [2] can be described thus: Aqueous solubility assay in Normal Ringer Solution. The conditions noted are these: Normal Ringer Solution; for Solubility Ringer (nM): room temperature; for solubility at 40 min: saline or isotonic, kinetic from dmso stock. On the procedure: Following vortex and incubation for a sufficient time (e.g. 40 minutes at room temperature), solutions were filtered, quenched with acetonitrile, and analyzed by Liquid Chromotography. Solubility Limits were determined by comparison to a standard curve.

Where [3] appears, read: Phase 1 current, inward, whole-cell patch clamp, read-out: hTRPV3 Patch P1 Inwd.
[4] abbreviates: Phase 1 current, read-out: hTRPV3 (nM) (Phase 1).
The mark [5] stands for this setting: Phase 2 current, inward, whole-cell patch clamp, read-out: hTRPV3 Patch P2 Inwd.
[6] abbreviates: Phase 2 current, read-out: hTRPV3 (nM) (Phase 2).
[7] abbreviates: Phase 1 current, human TRPV3, read-out: hTRPV3 (nM) Phase 1.

Chain of hTRPV3 (Q8NET8 whole entry): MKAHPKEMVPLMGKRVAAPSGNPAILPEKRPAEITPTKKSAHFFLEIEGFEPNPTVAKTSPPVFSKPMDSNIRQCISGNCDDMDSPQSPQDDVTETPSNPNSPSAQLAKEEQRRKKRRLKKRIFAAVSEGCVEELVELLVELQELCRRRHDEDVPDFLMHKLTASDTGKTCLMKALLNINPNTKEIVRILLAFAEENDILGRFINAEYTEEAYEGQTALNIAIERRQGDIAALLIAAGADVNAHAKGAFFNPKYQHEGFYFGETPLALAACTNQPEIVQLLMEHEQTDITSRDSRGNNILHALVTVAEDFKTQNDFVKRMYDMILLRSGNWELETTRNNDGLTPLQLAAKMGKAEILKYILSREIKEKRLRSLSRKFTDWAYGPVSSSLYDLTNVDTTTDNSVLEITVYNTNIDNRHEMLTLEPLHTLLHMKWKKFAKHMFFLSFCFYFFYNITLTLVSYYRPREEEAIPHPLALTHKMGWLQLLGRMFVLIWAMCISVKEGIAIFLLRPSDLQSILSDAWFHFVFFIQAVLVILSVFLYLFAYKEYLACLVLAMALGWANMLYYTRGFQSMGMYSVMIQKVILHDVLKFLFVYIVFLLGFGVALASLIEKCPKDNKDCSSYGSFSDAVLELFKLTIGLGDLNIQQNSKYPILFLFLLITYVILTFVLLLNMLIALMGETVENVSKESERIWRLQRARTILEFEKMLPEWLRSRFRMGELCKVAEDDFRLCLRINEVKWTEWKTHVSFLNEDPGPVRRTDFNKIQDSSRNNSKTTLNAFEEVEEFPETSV

As to `Oc1cc(-c2ccccc2Cl)ccc1N1CC[C@@H](Oc2ccc(C(F)(F)F)cn2)C1` [Compound 1-113, (R)-2′-chloro-4-(3-(5-(trifluoromethyl)pyridin-2-yloxy)pyrrolidin-1-yl)biphenyl-3-ol], the half-life at 1 μM in data set [1] (read-out: LM T1/2 (min) (rat)) turned out to be 33.5 min. The IC50 was 100 to 1000 nM at hTRPV3 (setting [3]), around 97.5 nM on hTRPV3 (setting [4]), 100 to 1000 nM at hTRPV3 (setting [5]) and 109 nM at hTRPV3 (setting [6]). Further, the “Solubility Ringer (nM)” value in data set [2] is given as “BLQ”.
As for `Cc1ccccc1C(O)c1ccc(N2CC[C@H](Oc3ncccc3F)C2)c(CO)c1` (stereo partly drawn) [Compound 1-231, (4-((S)-3-(3-fluoropyridin-2-yloxy)pyrrolidin-1-yl)-3-(hydroxymethyl)phenyl)(o-tolyl)methanol], the half-life at 1 μM in data set [1] (read-out: LM T1/2 (min) (rat)) came to 16.3 min. Besides, the solubility at 40 min in data set [2] is above 26.8 µM.
Turning to `Cc1ccc(Oc2ccc(N3CC[C@H](Oc4ncccc4Cl)C3)c(CO)c2)cc1` [Compound 1-250, (S)-(2-(3-(3-chloropyridin-2-yloxy)pyrrolidin-1-yl)-5-(p-tolyloxy)phenyl)methanol], the IC50 on hTRPV3 (setting [3]) was below 10 nM; at hTRPV3 (setting [4]) it was 8.42 nM. The same molecule showed a solubility at 40 min in data set [2] of around 0.1 µM (≈ 0.0411 µg/mL).
On to `CCc1ccccc1C(O)c1ccc(N2CC[C@H](Oc3ncccc3Cl)C2)c(CO)c1` (stereo partly drawn) [Compound 1-257, (4-((S)-3-(3-chloropyridin-2-yloxy)pyrrolidin-1-yl)-3-(hydroxymethyl)phenyl)(2-ethylphenyl)methanol], for which the IC50 at hTRPV3 (setting [3]) is 100 to 1000 nM; on hTRPV3 (setting [4]) it was 1060 nM; at hTRPV3 (setting [5]), above 1000 nM; on hTRPV3 (setting [6]), 1110 nM. The same molecule displayed a solubility at 40 min in data set [2] above 6.6 µM.
Turning to `CC(C)(C)OC(=O)N1CC=C(c2ccc(N3CC[C@H](Oc4ccc(C(F)(F)F)cn4)C3)c(CO)c2)CC1` [Compound 1-272, (S)-tert-butyl 4-(3-(hydroxymethyl)-4-(3-(5-(trifluoromethyl)pyridin-2-yloxy)pyrrolidin-1-yl)phenyl)-5,6-dihydropyridine-1 (2H)-carboxylate], the IC50 was above 1000 nM at hTRPV3 (setting [3]) and above 3200 nM on hTRPV3 (setting [4]). For the same molecule, the “Solubility Ringer (nM)” value in data set [2] is “BLQ”.
Turning to `CC(C)(C)OC(=O)N1CCC(c2ccc(N3CC[C@H](Oc4ccc(C(F)(F)F)cn4)C3)c(CO)c2)CC1` [Compound 1-273, (S)-tert-butyl 4-(3-(hydroxymethyl)-4-(3-(5-(trifluoromethyl)pyridin-2-yloxy)pyrrolidin-1-yl)phenyl)piperidine-1-carboxylate], the IC50 at hTRPV3 (setting [3]) is above 1000 nM; on hTRPV3 (setting [4]) it was above 3200 nM. The “Solubility Ringer (nM)” value in data set [2] is given as “BLQ”.
For `OCc1cc(-c2ccccc2)ccc1N1CC[C@H](Oc2ccccn2)C1` [Compound 1-274], the IC50 is 100 to 1000 nM on hTRPV3 (setting [3]) and 241 nM on hTRPV3 (setting [4]). The molecule also registered a solubility at 40 min in data set [2] of around 5.5 µM (≈ 1.91 µg/mL).
Turning to `OCc1cc([C@H](O)c2ccccc2Cl)ccc1N1CC[C@H](Oc2ncccc2F)C1` [Compound 1-322, (2-chlorophenyl)(4-((S)-3-(3-fluoropyridin-2-yloxy)pyrrolidin-1-yl)-3-(hydroxymethyl)phenyl)methanol], the IC50 at hTRPV3 (setting [3]) was 100 to 1000 nM; on hTRPV3 (setting [4]), 794 nM. In addition, the solubility at 40 min in data set [2] is above 9.3 µM.
Turning to `CCc1cc(F)ccc1Oc1ccc(N2CC[C@H](Oc3ccccn3)C2)c(CO)c1` [Compound 1-330], in data set [1] (read-out: LM T1/2 (min) (rat)), the half-life at 1 μM stood at 24.8 min. For the same molecule, the IC50 was 10 to 100 nM at hTRPV3 (setting [3]), 49.5 nM at hTRPV3 (setting [4]), 10 to 100 nM at hTRPV3 (setting [5]) and 56.6 nM on hTRPV3 (setting [6]).
In the case of `COc1ccccc1Oc1ccc(N2CC[C@H](Oc3ncccc3C)C2)c(CO)c1` [Compound 1-340, (S)-(5-(2-methoxyphenoxy)-2-(3-(3-methylpyridin-2-yloxy)pyrrolidin-1-yl)phenyl)methanol], the IC50 on hTRPV3 (setting [3]) was 10 to 100 nM; on hTRPV3 (setting [4]), 70.1 nM; at hTRPV3 (setting [5]) it was 10 to 100 nM; at hTRPV3 (setting [6]), 74.4 nM. In data set [2], this molecule registered a solubility at 40 min of around 2.4 µM (≈ 0.976 µg/mL).
As for `OCc1cc(Oc2ccccc2)ccc1N1CC[C@H](Nc2ncccc2Cl)C1` [Compound 1-381, (S)-(2-(3-(3-chloropyridin-2-ylamino)pyrrolidin-1-yl)-5-phenoxyphenyl)methanol], the IC50 is 10 to 100 nM at hTRPV3 (setting [3]) and 23.3 nM on hTRPV3 (setting [4]). The molecule also displayed a solubility at 40 min in data set [2] above 1.6 µM.
On to `OCc1cc(Oc2ccccc2Cl)ccc1N1CC[C@H](Nc2ncccc2Cl)C1` [Compound 1-382, (S)-(5-(2-chlorophenoxy)-2-(3-(3-chloropyridin-2-ylamino)pyrrolidin-1-yl)phenyl)methanol], for which the IC50 was 10 to 100 nM on hTRPV3 (setting [3]) and 30.9 nM at hTRPV3 (setting [4]). The same molecule gave a solubility at 40 min in data set [2] of 0.5 µM (≈ 0.215 µg/mL).
As for `OCc1cc(-c2ccccc2)ccc1N1CC[C@H](Nc2nc(C(F)(F)F)cs2)C1` [Compound 1-394, (S)-(4-(3-(4-(trifluoromethyl)thiazol-2-ylamino)pyrrolidin-1-yl)biphenyl-3-yl)methanol], the IC50 is 100 to 1000 nM at hTRPV3 (setting [3]), 616 nM on hTRPV3 (setting [4]), 100 to 1000 nM on hTRPV3 (setting [5]) and 496 nM on hTRPV3 (setting [6]). The molecule further showed a solubility at 40 min in data set [2] of 1.87 µM (≈ 0.784 µg/mL).
As to `OCc1cc(-c2ccccc2)ccc1N1CC[C@H](Oc2nc(C(F)(F)F)cs2)C1` [Compound 1-395, (S)-(4-(3-(4-(trifluoromethyl)thiazol-2-yloxy)pyrrolidin-1-yl)biphenyl-3-yl)methanol], the IC50 at hTRPV3 (setting [3]) is above 1000 nM; at hTRPV3 (setting [4]) it was above 3200 nM; at hTRPV3 (setting [5]) it was above 1000 nM; on hTRPV3 (setting [6]), above 3200 nM. The “Solubility Ringer (nM)” value in data set [2] is given as “BLQ”.
Take `CC(C)c1ccccc1Oc1ccc(C2CCN(C(=O)c3ccc(Cl)cn3)C2)c(CO)c1` (stereo not drawn) [Compound 2-17, (5-chloropyridin-2-yl)(3-(2-(hydroxymethyl)-4-(2-isopropylphenoxy)phenyl)pyrrolidin-1-yl)methanone]: the half-life at 1 μM in data set [1] (read-out: LM T1/2 (min) rat) turned out to be 7.93 min. Also, the figures for the IC50 at hTRPV3 (setting [7]) and on hTRPV3 (setting [3]) were 57.4 nM and 10 to 100 nM, respectively.
Taken in the same sequence, the figures for `Cc1cccnc1C(=O)N1CCC(c2ccc(Oc3ccccc3C(C)C)cc2CO)C1` (stereo not drawn) [Compound 2-18, (3-(2-(hydroxymethyl)-4-(2-isopropylphenoxy)phenyl)pyrrolidin-1-yl)(3-methylpyridin-2-yl)methanone] were 7.81 min, 314 nM and 100 to 1000 nM.
For `CCc1ccccc1-c1ccc(C2CCN(C(=O)c3ccccn3)C2)c(CO)c1` (stereo not drawn) [Compound 2-27, (3-(2′-ethyl-3-(hydroxymethyl)biphenyl-4-yl)pyrrolidin-1-yl)(pyridin-2-yl)methanone] the same measures were 12.9 min, 73 nM and 10 to 100 nM.
Taken in the same sequence, the figures for `CC(C)c1ccccc1Oc1ccc(C2CCN(C(=O)c3ccc(Cl)cn3)C2)c(C(N)=O)c1` (stereo not drawn) [Compound 2-32, 2-(1-(5-chloropicolinoyl)pyrrolidin-3-yl)-5-(2-isopropylphenoxy)benzamide] were 6.86 min, 677 nM and 100 to 1000 nM.
Regarding `Cc1cccc(C(=O)N2CCC(c3ccc(Oc4ccccc4C(C)C)cc3C(N)=O)C2)n1` (stereo not drawn) [Compound 2-33, 5-(2-isopropylphenoxy)-2-(1-(6-methylpicolinoyl)pyrrolidin-3-yl)benzamide], the half-life at 1 μM in data set [1] (read-out: LM T1/2 (min) rat) came out at 11 min. The IC50 on hTRPV3 (setting [7]) was 645 nM; on hTRPV3 (setting [3]), 100 to 1000 nM.
`CCc1ccccc1-c1ccc(C2CCN(C(=O)c3ccc(F)cn3)C2)c(C(N)=O)c1` (stereo not drawn) [Compound 2-34, 2′-ethyl-4-(1-(5-fluoropicolinoyl)pyrrolidin-3-yl)biphenyl-3-carboxamide]: in data set [1] (read-out: LM T1/2 (min) rat), the half-life at 1 μM came out at 26.4 min. Moreover, the figures for the IC50 on hTRPV3 (setting [7]) and at hTRPV3 (setting [3]) were 337 nM and 100 to 1000 nM, respectively.
For `CC(C)c1ccccc1-c1ccc(C2CCN(C(=O)c3ncccc3Cl)C2)c(CO)c1` (stereo not drawn) [Compound 2-36] the same measures were 11.2 min, 39.3 nM and 10 to 100 nM.
Taken in the same sequence, the figures for `O=C(c1cccc(Cl)n1)N1CCC(c2ccc(-c3ccccc3C3CC3)cc2CO)C1` (stereo not drawn) [Compound 2-57, (6-chloropyridin-2-yl)(3-(2′-cyclopropyl-3-(hydroxymethyl)biphenyl-4-yl)pyrrolidin-1-yl)methanone] were 32.3 min, 7.34 nM and below 10 nM.
With `Cc1ccc(C(=O)N2CCC(c3ccc(-c4ccccc4C(C)C)cc3CO)C2)nc1` (stereo not drawn) [Compound 2-79], the IC50 on hTRPV3 (setting [7]) is 19.8 nM; on hTRPV3 (setting [3]) it was 10 to 100 nM. Moreover, in data set [2], the solubility at 40 min turned out to be 7.38 µM (≈ 3.06 µg/mL).
For the molecule `Cc1ccccc1Oc1ccc(C2CCN(Cc3ncccc3Cl)C2)c(CO)c1` (stereo not drawn) [Compound 2-86], the IC50 is 226 nM on hTRPV3 (setting [7]) and 100 to 1000 nM on hTRPV3 (setting [3]). The molecule further had a solubility at 40 min in data set [2] of around 2.2 µM (≈ 0.9 µg/mL).
As to `CC(C)c1ccccc1Oc1ccc(C2CCN(C(=O)Cc3ccccn3)C2)c(CO)c1` (stereo not drawn) [Compound 2-116], the half-life at 1 μM in data set [1] (read-out: LM T1/2 (min) rat) is 3.62 min. The IC50 on hTRPV3 (setting [7]) is around 3500 nM; at hTRPV3 (Phase 2 current, human TRPV3, read-out: hTRPV3 (nM) Phase 2), 2600 nM.

For the origin of these results see US12435061B2 (priority 2020, dated 2025).
